Assay results from patent US7335248B2, “Marine antifouling coating compositions” (Novus International, Inc., priority 2005, dated 2008).
“And” between values parts separate entries of the source, which are not always exact repeats. Equal values may be shown once.

Legend:
barnacles [1] = assay: Six month static immersion fouling test of painted PVC panels (open ocean, Tuticorin, India); format: in vivo; settings: for Total barnacle Count: both duplicate panels; for Mean ± SD (barnacle count): four panel surfaces; for efficacy / barnacle settlement: copper self-polishing and metal-free ablative coatings, six months of exposure
Excerpt: The reported data were extracted from the raw data as described below, and are shown as total barnacle counts for both duplicate panels of each test formulation. In Table 4, the mean and standard deviation of the data derived from the four panels' surfaces of the duplicate panels for each group. The barnacle counts along the edges were not considered in this evaluation because of the expected uneven coating and inherent tendency of barnacles to first attach to edges. In addition, coatings along the edges can be easily damaged or uneven. Thus, for evaluation purposes only the coated surfaces of the flat areas were considered for this evaluation.
Zinc Omadine was used as the positive control for this series of tests. It is important to note here that fouling is continuous throughout the year at the Tuticorin, India site and the degree of settlement is generally the same for the same coating system.

barnacle cyprids = assay: Barnacle cyprid settlement assay (method of Rittschof et al.), EC50 by probit analysis; format: in vivo, Balanus amphitrite amphitrite
Description: In this case, the defined effect is that the cyprids have not settled and have not attached to the Petri dish. Thus, in the attached data set, the “set” column indicates the total number of cyprid larvae that have settled and attached on the surface of the Petri dish and “non-set” indicates the total number of cyprids that remain swimming in the seawater and have not settled on the surface of the Petri dish.
Briefly, the barnacle adults are cultured in the laboratory and allowed to spawn naturally. The larvae are harvested and grown in artificial culture systems until they reach the cyprid stage at which time the larvae become competent to attach to surfaces. Once attached, the cyprids transform into a pinhead barnacle, thus becoming permanently attached to the surface. Rittschof D, Clare A S, Gerhart D J, Avelin Mary, Bonavetura J (1991) Barnacle in vitro assays for biologically active substances: toxicity and settlement assays using mass cultured Balanus amphitrite amphitrite Darwin. Biofouling (1992) 6:115-122.
(§1) Five replicates (e.g., a-e) for each concentration and the control were collected.

[2] = Solubility in seawater at the levels added in the cyprid assay; format: physicochemical; settings: at the levels added (up to 0.1 mg/ml)
Excerpt: as §1

barnacles [3] = assay: Nine month static immersion testing in the Indian Ocean; format: in vivo; settings: 9-month static immersion
Excerpt: Table 5 summarizes the anti-fouling data from the nine-month immersion test, performed as described above for the six month tests.

[4] = CUAB coating, 5% (w/w), 6 months
[5] = CUSP coating, 5% (w/w), 6 months
[6] = MFAB coating, 5% (w/w), 6 months
[7] = 1e-4 mg/ml, Total of five replicates
[8] = 0.001 mg/ml, Total of five replicates
[9] = 0.01 mg/ml, Total of five replicates
[10] = 0.1 mg/ml, Total of five replicates
[11] = CUAB coating, 1% (w/w), 6 months
[12] = CUAB coating, 3% (w/w), 6 months
[13] = CUAB coating, 10% (w/w), 6 months
[14] = CUSP coating, 1% (w/w), 6 months
[15] = CUSP coating, 3% (w/w), 6 months
[16] = CUSP coating, 10% (w/w), 6 months
[17] = MFAB coating, 1% (w/w), 6 months
[18] = MFAB coating, 3% (w/w), 6 months
[19] = MFAB coating, 10% (w/w), 6 months

Compound: [O-][n+]1ccccc1[S-].[O-][n+]1ccccc1[S-].[Zn+2] [Zn Omadine, zinc salt of pyrithione, reference compound]
- Total barnacle Count (barnacles [1]; [4]): 167
- Mean ± SD (barnacle count) (barnacles [1]; [4]): 41.8 ± 23.3
- Total barnacle Count (barnacles [1]; [5]): 33
- Mean ± SD (barnacle count) (barnacles [1]; [5]): 8.3 ± 4.0
- Total barnacle Count (barnacles [1]; [6]): 113
- Mean ± SD (barnacle count) (barnacles [1]; [6]): 28 ± 15.0
- barnacle coverage of panels (barnacles [1]; MFSP coating, 5%, 6 months): fully covered by barnacles
- efficacy / barnacle settlement (barnacles [1]): substantial settlement

Compound: CSCCC(O)C(=O)[O-].CSCCC(O)C(=O)[O-].[Zn+2] (stereo not drawn) [HMTBA-Zn, zinc 2-hydroxy-4-methylthiobutanoate chelate]
- % of set (barnacle cyprids; [7]): 61%
- Non set (barnacle cyprids; [7]): 122
- Set (barnacle cyprids; [7]): 191
- % of set (barnacle cyprids; 1e-4 mg/ml, single replicate): 57% and 60% (2×) and 77% and 55%
- Non set (barnacle cyprids; 1e-4 mg/ml, single replicate): 28 and 21 and 12 and 25 and 36
- Set (barnacle cyprids; 1e-4 mg/ml, single replicate): 37 and 31 and 41 and 38 and 44
- % of set (barnacle cyprids; [8]): 58%
- Non set (barnacle cyprids; [8]): 135
- Set (barnacle cyprids; [8]): 187
- % of set (barnacle cyprids; 0.001 mg/ml, single replicate): 62% and 78% and 69% and 41% and 42%
- Non set (barnacle cyprids; 0.001 mg/ml, single replicate): 30 and 14 and 16 and 38 and 37
- Set (barnacle cyprids; 0.001 mg/ml, single replicate): 49 (2×) and 36 and 26 and 27
- appearance and swimming behavior of cyprids (barnacle cyprids; 0.01 mg/ml and higher (so in the source)): no adverse effects
- % of set (barnacle cyprids; [9]): 32%
- Non set (barnacle cyprids; [9]): 207
- Set (barnacle cyprids; [9]): 99
- % of set (barnacle cyprids; 0.01 mg/ml, single replicate): 30% and 26% and 40% and 32% and 35%
- Non set (barnacle cyprids; 0.01 mg/ml, single replicate): 49 and 54 and 44 and 34 and 26
- Set (barnacle cyprids; 0.01 mg/ml, single replicate): 21 and 19 and 29 and 16 and 14
- toxic effects on the cyprids (barnacle cyprids; 0.1 mg per ml): death of all cyprids
- % of set (barnacle cyprids; [10]): 0%
- Non set (barnacle cyprids; [10]): 346
- Set (barnacle cyprids; [10]): 0
- % of set (barnacle cyprids; 0.1 mg/ml, single replicate): 0%
- Non set (barnacle cyprids; 0.1 mg/ml, single replicate): 92 and 69 and 63 and 58 and 64
- Set (barnacle cyprids; 0.1 mg/ml, single replicate): 0
- EC50 (barnacle cyprids; barnacle cyprids not settled/attached to Petri dish, probit analysis): 5.7 mg/L
- inhibition of barnacle cyprid settlement (barnacle cyprids; in vivo): biologically active as inhibitors of barnacle cyprid settlement
- SLOPE (barnacle cyprids; probit analysis, barnacle settlement): 1.564
- NO. RESPONDING (barnacle cyprids; probit data as input, DOSE .00001): 97
- solubility in seawater [2]: soluble in seawater at the levels added
- LS MEAN BARNACLES (barnacles [3]; CUSP PAINT): 3
- LS MEAN BARNACLES (barnacles [3]; MFAB PAINT): 1.5
- Total barnacle Count (barnacles [1]; [11]): 123
- Mean ± SD (barnacle count) (barnacles [1]; [11]): 30.8 ± 11.6
- Total barnacle Count (barnacles [1]; [12]): 52
- Mean ± SD (barnacle count) (barnacles [1]; [12]): 13.0 ± 10.7
- Total barnacle Count (barnacles [1]; [4]): 1
- Mean ± SD (barnacle count) (barnacles [1]; [4]): 0.3 ± 0.4
- Total barnacle Count (barnacles [1]; [13]): 101
- Mean ± SD (barnacle count) (barnacles [1]; [13]): 25.3 ± 2.9
- Total barnacle Count (barnacles [1]; [14]): 1
- Mean ± SD (barnacle count) (barnacles [1]; [14]): 0.3 ± 0.4
- Total barnacle Count (barnacles [1]; [15]): 0
- Mean ± SD (barnacle count) (barnacles [1]; [15]): 0
- Total barnacle Count (barnacles [1]; [5]): 0
- Mean ± SD (barnacle count) (barnacles [1]; [5]): 0
- Total barnacle Count (barnacles [1]; [16]): 2
- Mean ± SD (barnacle count) (barnacles [1]; [16]): 0.5 ± 0.9
- Total barnacle Count (barnacles [1]; [17]): 0
- Mean ± SD (barnacle count) (barnacles [1]; [17]): 0
- Total barnacle Count (barnacles [1]; [18]): 3
- Mean ± SD (barnacle count) (barnacles [1]; [18]): 0.8 ± 1.3
- Total barnacle Count (barnacles [1]; [6]): 1
- Mean ± SD (barnacle count) (barnacles [1]; [6]): 0.3 ± 0.4
- Total barnacle Count (barnacles [1]; [19]): 7
- Mean ± SD (barnacle count) (barnacles [1]; [19]): 1.8 ± 1.3
- comparative performance (barnacles [1]; copper ablative coatings, 5%, six months): outperformed
- efficacy / barnacle settlement (barnacles [1]): significant efficacy

Compound: CSCC[C@H](N)C(=O)O.[Zn] [Zn-Methionine, zinc methionine]
- LS MEAN BARNACLES (barnacles [3]; CUSP PAINT): 0.5
- LS MEAN BARNACLES (barnacles [3]; MFAB PAINT): 8
